Where two headings read alike, the source gives them in different places.
Biological target: T1, acetylcholine muscarinic M1 receptor (CHOnfat/hM1 cells) (Homo sapiens, UniProt P11229)
T1 construct: expressed in transfected cells; host or cells: CHOnfat (CHO cells; selected with Geneticin)
T1 sequence (P11229 1-460): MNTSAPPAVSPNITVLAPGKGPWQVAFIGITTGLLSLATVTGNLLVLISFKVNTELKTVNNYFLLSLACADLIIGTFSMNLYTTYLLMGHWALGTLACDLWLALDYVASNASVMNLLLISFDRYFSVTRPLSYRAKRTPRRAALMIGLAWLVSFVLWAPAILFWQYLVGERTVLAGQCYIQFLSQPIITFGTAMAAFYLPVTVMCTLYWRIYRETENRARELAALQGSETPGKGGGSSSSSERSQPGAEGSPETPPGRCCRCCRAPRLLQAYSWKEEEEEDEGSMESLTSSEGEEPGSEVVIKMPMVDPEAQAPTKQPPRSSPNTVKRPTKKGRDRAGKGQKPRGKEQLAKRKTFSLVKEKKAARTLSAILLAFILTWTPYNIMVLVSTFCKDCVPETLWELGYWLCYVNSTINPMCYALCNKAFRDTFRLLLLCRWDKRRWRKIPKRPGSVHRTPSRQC
Assay: FLIPR intracellular calcium assay for M1 positive allosteric modulator activity (acetylcholine EC20)
Assay type: cell-based
Protocol: The assay studies the effect of one or several concentrations of test compounds on basal or acetylcholine-stimulated Ca^2+ levels using FLIPR.
Compounds are prepared and subjected to a preincubation period of 4 min. Thereafter, a single EC20 concentration of acetylcholine is added to each well (3 nM final). The intracellular Ca^2+ level of each sample is measured and compared to an acetylcholine control to determine any modulatory activity.
Cells: CHOnfat/hM1, hM2, hM3 or hM4 cells are plated 24 hr before the assay at a density of 18,000 cells/well (100 μL) in a 384 well plate. CHOnfat/hM1 and CHOnfat/hM3 Growth Medium: 90% DMEM (Hi Glucose); 10% HI FBS; 2 mM L-glutamine; 0.1 mM NEAA; Pen-Strep; and 1 mg/ml Geneticin, are added. For M2Gqi5CHOnfat and M4Gqi5CHOnfat cells, an additional 600 μg/ml hygromycin is added.
Equipment: 384 well plate, 120 μL addition plate; 96-well Whatman 2 ml Uniplate Incubator, 37° C., 5% CO2; Skatron EMBLA-384 Plate Washer; Multimek Pipetting System; Genesis Freedom 200 System; Mosquito System; Temo Nanoliter Pipetting System; and FLIPR^384 Fluorometric Imaging Plate Reader System are used.
Buffers. Assay Buffer: Hanks Balanced Salt Solution, with 20 mM Hepes, 2.5 mM Probenecid (Sigma P-8761) first dissolved in 1 N NaOH, 1% Bovine Serum Albumin (Sigma A-9647). Dye Loading Buffer: Assay Buffer plus 1% Fetal Bovine Serum and Fluo-4AM/Pluronic Acid Mixture. 2 mM Fluo-4AM ester stock in DMSO (Molecular Probes F-14202) Concentration of 2 μM in buffer for a final concentration of 1 μM in Assay. 20% Pluronic Acid Solution stock, with concentration of 0.04% in Buffer, 0.02% in Assay.
65 μL of 2 mM Fluo-4AM are mixed with 130 μL of 20% Pluronic Acid. The resulting solution and 650 μL FBS is added to the assay buffer for a total volume of 65 mL. Positive Controls: 4-Br-A23187: 10 mM in DMSO; final concentration 10 μM. Acetylcholine: 10 mM in water, working stock at both 20 μM and 30 μM in assay buffer, final concentration of 10 μM. This is used to check the maximum stimulation of the CHOK1/hM1 cells. 20 μM (2×) acetylcholine is added in the preincubation part of the assay, and the 30 μM (3×) stock is added in the second part. (EC20) Acetylcholine: 10 mM in water, working stock of 9 nM (3×), and final concentration in assay is 3 nM. This is used after the preincubation with test compounds. Addition of the EC20 Acetylcholine to each well with a test compound will ascertain any modulator activity. 24 wells contain 3 nM Acetylcholine alone as a control.
Screening Plate: Compounds are titrated in 96-well plates (columns 2-11), 100% DMSO, started at a concentration of 15 mM (150× stock concentration), and 3-fold serial dilutions using Genesis Freedom200 System. Four 96-well plates are combined into a 384-well plate using Mosquito Nanoliter Pipetting System by transferring 1 μl of serial diluted compounds to each well, and 1 mM acetylcholine (100× stock concentration) were added as a control. Using Temo, 49 μl assay buffer is added to each well of the 384-well plate right before assay.
In a 96-well Whatman 2 ml Uniplate, 9 nM Acetylcholine (3×) is pipetted into wells corresponding to the screening compounds, and into control wells. The 30 μM acetylcholine control (3×) is added into control wells, and the 3× agonist plate is transferred into a 384 well plate.
Cells are washed three times with 100 μL of buffer, leaving 30 μL of buffer in each well. Using Multimek, 30 μL of Dye Loading Buffer is added into each well and incubated at 37° C., 5% CO2 for up to one hr.
After 60 min, the cells are washed three times with 100 μL of buffer, leaving 30 μL of buffer in each well. The cell plate, screening plate, and agonist addition plates are placed on the platform in the FLIPR and the door closed. A signal test to check background fluorescence and basal fluorescence signal is performed. Laser intensity is adjusted if necessary. […]

[1] = CHOnfat/hM1 cells, 4 min preincubation, then EC20 acetylcholine (3 nM final), FLIPR Ca2+, read-out: IP Value (inflection point)

SMILES	EC50 [1] [nM]	EC50 [nM]
C[S@@+]([O-])[C@H]1CCCC[C@@H]1NC(=O)c1cc(CN2CCC(C#N)(c3ccccn3)CC2)c2ccccn2c1=O (racemic) [Example 17, rac-1-[(4-Cyano-4-pyridin-2-ylpiperidin-1-yl)methyl]-N-{(1R,2R)-2-[(S)-methylsulfinyl]cyclohexyl}-4-oxo-4H-quinolizine-3-carboxamide]	2600	–
Cn1cc(-c2ccc(Cc3cc(C(=O)N[C@H]4CCCC[C@@H]4O)c(=O)n4ccccc34)nc2)cn1 [Example 3, N-[(1S,2S)-2-Hydroxycyclohexyl]-{-[5-(1-methyl-1H-pyrazol-4-yl)pyridine-2-yl]methyl}-4-oxo-4H-quinolizine-3-carboxamide]	15	–
COC(=O)N1CCC(NC(=O)c2cc(CN3CCC(C#N)(c4ccccn4)CC3)c3ccccn3c2=O)CC1 [Example 20, Methyl 4-[({1-[(4-cyano-4-pyridin-2-ylpiperidin-1-yl)methyl]-4-oxo-4H-quinolizin-3-yl}carbonyl)amino]piperidine-1-carboxylate]	600	–
N#CC1(c2cc(CF)ccn2)CCN(Cc2cc(C(=O)N[C@H]3CCCC[C@@H]3O)c(=O)n3ccccc23)CC1 [Example 23, 1-({4-Cyano-4-[4-(fluoromethyl)pyridine-2-yl]piperidin-1-yl}methyl)-N-[(1S,2S)-2-hydroxycyclohexyl]-4-oxo-4H-quinolizine-3-carboxamide]	–	34
N#CC1(c2ncc(Br)cc2Br)CCN(Cc2cc(C(=O)N[C@H]3CCOC[C@@H]3O)c(=O)n3ccccc23)CC1 [Example 10, 1-{[4-Cyano-4-(3,5-dibromopyridin-2-yl)piperidin-1-yl]methyl}-N-[(3R,4S)-3-hydroxytetrahydro-2H-pyran-4-yl]-4-oxo-4H-quinolizine-3-carboxamide]	–	14

Source: patent US8754220B2, “Quinolizidinone carboxamide M1 receptor positive allosteric modulators” (Merck Sharp & Dohme Corp., priority 2009, dated 2014)
